Assay results reported in patent publication US10052320B2, “Substituted quinoxalines as FGFR kinase inhibitors” (ASTEX THERAPEUTICS LIMITED, priority 2011, dated 2018).

What was measured:
[1] = molecular target: Ba/F3-FGFR1-transfected cells (Homo sapiens, UniProt P11362); experiment: Ba/F3-FGFR1 (minus IL3) cellular proliferation assay, Alamar Blue; format: cell-based; settings: minus IL3, 384 well
Summary of the method: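 24 h cmpd exposure, 37 °C/5% CO2; phenol red-free RPMI-1640, 10% FBS; 20000 cells/well (384) or 10000 cells/well (96); Alamar Blue (0.15 mM resazurin) 4 h; RFU ex 540/em 590.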

[2] = molecular target: FGFR1 (h) (Homo sapiens, UniProt P11362); experiment: FGFR1 (enzymatic assay), TR-FRET; format: biochemical; settings: read-out: FGFR 1 pIC50 (converted)
Protocol: In a final reaction volume of 30 μL, FGFR1 (h) (25 ng/ml) was incubated with 50 mM HEPES pH 7.5, 6 mM MnCl2, 1 mM DTT, 0.1 mM Na3VO4, 0.01% Triton-X-100, 500 nM Btn-Flt3 and 5 μM ATP in the presence of compound (1% DMSO final). […] Time-Resolved Fluorescence Resonance Energy Transfer (TR-FRET) signal (ex340 nm. Em 620 nm, em 655 nm) was measured afterwards and results are expressed in RFU (Relative Fluorescence Units).

[3] = molecular target: Ba/F3-FGFR4-transfected cells (Homo sapiens, UniProt P22455); experiment: Ba/F3-FGFR4 cellular proliferation assay, Alamar Blue; format: cell-based
Summary of the method: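 Ba/F3 cells transfected with FGFR4, 20000 cells/well in phenol red-free RPMI-1640 with 10% FBS, were exposed to compound for 24 h at 37° C, 5% CO2. Alamar Blue (resazurin) was then added for 4 h, and fluorescence was read at ex 540/em 590 nm.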

[4] = system: Ba/F3-FGFR3-transfected cells in the presence of 10 ng/ml murine IL3; experiment: Ba/F3-FGFR3 (plus IL3) cellular proliferation counterscreen, Alamar Blue; format: cell-based; settings: Mus musculus; plus 10 ng/ml murine IL3; 384 well; read-out: BAF3-FGFR 3 (PLUS IL3) 384 well pIC50 (converted)
Summary of the method: (§1)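 FGFR3-Ba/F3 cells, 20000/well (384-well) or 10000/well (96-well), phenol red free RPMI + 10% FBS; cpd in DMSO; 24 h, 37 °C/5% CO2; Alamar Blue 4 h; RFU ex540/em590.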

[5] = molecular target: Ba/F3-FGFR3-transfected cells (Homo sapiens, UniProt P22607); experiment: Ba/F3-FGFR3 (minus IL3) cellular proliferation assay, Alamar Blue; format: cell-based; settings: minus IL3, 384 well
Summary of the method: as §1

Sequence of Ba/F3-FGFR4-transfected cells (P22455 whole entry, change not shown): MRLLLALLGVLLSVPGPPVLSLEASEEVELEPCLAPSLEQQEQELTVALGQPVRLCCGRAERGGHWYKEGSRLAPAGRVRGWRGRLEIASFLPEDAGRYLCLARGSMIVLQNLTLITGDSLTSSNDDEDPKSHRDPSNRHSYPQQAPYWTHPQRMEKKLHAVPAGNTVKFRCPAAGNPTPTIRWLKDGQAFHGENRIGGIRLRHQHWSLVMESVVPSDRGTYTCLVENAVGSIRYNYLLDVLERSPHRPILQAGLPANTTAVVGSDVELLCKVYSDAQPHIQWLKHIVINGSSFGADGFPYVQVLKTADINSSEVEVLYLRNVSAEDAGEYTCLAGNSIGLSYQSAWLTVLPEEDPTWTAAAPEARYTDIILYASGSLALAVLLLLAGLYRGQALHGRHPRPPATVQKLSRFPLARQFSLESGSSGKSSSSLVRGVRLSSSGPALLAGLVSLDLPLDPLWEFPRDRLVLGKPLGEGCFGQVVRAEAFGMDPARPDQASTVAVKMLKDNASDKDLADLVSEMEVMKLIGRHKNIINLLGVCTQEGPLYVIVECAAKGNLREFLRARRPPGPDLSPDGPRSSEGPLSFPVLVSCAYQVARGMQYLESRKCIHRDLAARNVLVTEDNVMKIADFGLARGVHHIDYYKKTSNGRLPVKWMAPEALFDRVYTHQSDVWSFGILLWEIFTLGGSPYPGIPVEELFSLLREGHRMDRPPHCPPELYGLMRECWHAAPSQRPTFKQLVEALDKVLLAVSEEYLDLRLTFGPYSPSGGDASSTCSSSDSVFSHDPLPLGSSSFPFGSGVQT
Sequence of Ba/F3-FGFR1-transfected cells (P11362 whole entry, change not shown): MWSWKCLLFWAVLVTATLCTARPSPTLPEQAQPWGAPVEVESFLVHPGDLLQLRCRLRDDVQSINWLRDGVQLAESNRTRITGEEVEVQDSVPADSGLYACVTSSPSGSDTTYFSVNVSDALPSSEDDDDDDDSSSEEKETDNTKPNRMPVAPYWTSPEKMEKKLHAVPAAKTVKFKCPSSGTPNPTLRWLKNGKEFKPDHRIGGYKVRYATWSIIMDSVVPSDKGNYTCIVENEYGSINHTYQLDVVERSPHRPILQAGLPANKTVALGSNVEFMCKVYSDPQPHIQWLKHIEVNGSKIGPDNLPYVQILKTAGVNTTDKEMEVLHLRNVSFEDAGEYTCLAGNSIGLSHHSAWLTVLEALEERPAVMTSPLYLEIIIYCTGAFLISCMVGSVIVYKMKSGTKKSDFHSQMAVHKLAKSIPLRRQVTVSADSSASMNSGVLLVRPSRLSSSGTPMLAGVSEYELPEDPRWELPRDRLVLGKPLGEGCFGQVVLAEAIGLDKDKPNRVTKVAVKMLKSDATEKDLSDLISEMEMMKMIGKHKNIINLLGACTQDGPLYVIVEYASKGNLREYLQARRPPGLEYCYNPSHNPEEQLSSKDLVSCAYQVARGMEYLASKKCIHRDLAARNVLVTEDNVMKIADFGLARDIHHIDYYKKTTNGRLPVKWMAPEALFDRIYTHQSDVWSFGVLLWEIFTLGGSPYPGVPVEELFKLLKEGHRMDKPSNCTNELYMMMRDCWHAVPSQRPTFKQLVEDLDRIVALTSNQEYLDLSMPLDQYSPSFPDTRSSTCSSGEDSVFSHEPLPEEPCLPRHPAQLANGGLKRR
Sequence of Ba/F3-FGFR3-transfected cells (P22607 whole entry, change not shown): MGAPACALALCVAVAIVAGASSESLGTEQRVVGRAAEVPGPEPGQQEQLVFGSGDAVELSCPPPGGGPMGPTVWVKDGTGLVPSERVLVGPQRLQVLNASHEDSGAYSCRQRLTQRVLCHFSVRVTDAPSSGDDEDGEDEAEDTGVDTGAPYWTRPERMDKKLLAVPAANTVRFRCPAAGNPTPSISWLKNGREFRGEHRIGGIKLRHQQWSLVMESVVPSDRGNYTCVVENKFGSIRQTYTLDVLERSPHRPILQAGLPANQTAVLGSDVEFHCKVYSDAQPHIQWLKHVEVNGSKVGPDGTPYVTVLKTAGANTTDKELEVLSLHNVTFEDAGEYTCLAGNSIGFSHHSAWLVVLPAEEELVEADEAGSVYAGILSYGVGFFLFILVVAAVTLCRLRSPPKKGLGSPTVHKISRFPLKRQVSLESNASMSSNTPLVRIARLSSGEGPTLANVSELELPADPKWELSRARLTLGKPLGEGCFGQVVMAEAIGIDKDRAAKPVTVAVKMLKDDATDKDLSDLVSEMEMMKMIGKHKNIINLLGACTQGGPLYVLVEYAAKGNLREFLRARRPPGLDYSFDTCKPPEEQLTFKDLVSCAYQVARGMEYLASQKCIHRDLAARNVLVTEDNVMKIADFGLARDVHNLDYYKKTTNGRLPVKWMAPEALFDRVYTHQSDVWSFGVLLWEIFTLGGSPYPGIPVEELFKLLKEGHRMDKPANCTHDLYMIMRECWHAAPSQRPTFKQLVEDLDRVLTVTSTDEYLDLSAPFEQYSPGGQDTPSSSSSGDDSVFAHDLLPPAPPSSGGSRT
Sequence of FGFR1 (h) (P11362 22-822): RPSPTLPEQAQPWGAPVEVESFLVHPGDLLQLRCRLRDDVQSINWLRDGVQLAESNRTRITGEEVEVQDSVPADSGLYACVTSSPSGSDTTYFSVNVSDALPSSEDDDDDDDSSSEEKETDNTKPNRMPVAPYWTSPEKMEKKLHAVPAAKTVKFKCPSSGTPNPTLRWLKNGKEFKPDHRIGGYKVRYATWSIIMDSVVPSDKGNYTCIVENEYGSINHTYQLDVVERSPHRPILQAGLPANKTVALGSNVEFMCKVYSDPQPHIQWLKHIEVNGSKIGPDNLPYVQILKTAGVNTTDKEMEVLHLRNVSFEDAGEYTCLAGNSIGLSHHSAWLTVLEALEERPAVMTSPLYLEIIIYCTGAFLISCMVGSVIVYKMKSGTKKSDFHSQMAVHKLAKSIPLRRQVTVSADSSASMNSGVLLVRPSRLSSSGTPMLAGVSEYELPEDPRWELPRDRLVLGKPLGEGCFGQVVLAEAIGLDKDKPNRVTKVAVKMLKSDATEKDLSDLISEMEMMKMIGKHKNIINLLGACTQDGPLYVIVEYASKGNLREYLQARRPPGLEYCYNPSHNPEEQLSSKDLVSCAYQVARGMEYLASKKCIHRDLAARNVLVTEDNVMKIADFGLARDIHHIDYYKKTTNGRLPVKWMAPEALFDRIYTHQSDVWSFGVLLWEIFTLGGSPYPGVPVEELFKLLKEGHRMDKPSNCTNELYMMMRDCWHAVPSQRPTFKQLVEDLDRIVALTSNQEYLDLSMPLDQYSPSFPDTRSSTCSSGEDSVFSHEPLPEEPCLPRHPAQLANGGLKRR

| Compound | BAF3-FGFR 1 (MIN IL3) 384 well pIC50 [1] | IC50 [2] [nM] | BAF3-FGFR4 pIC50 [3] | IC50 [4] [nM] | melting point [°C] | BAF3-FGFR 3 (MIN IL3) 384 well pIC50 [5] |
| --- | --- | --- | --- | --- | --- | --- |
| COc1cc(OC)cc(N(CCO)c2ccc3ncc(-c4cccnc4)nc3c2)c1 [Compound 9] | 6.25 | 10 | 5.8 | > 10000 | 151 | 6.59 |
| COCCN(c1cc(OC)cc(OC)c1)c1ccc2ncc(-c3ccn(C)c3)nc2c1 [Compound 6] | 5.84 | 4.37 | 5.6 | > 10000 | 135 | ~6.27 |
| COc1cc(OC)cc(N(CCCO)c2ccc3ncc(-c4ccnc(NC(=O)OC(C)(C)C)c4)nc3c2)c1 [Compound 128] | <5 | 182 | <5 | > 10000 | 213 | <5 |
| CNc1ccc(-c2cnc3ccc(N(CCCO)c4cc(OC)cc(OC)c4)cc3n2)cn1 [Compound 116] | 5.9 | 7.24 | 6.4 | > 10000 | 188 | 6.59 |
| COc1cc(OC)cc(N(CC(O)CO)c2ccc3ncc(-c4ccc(N)nc4)nc3c2)c1 (stereo not drawn) [Compound 74] | 6.62 | 7.24 | 6.1 | > 10000 | – | 6.69 |
| COc1cc(OC)cc(N(CCCO)c2ccc3ncc(-c4cccnc4)nc3c2)c1 [Compound 112] | 6.11 | 18.6 | 5.8 | > 10000 | 150 | ~6.39 |
| COc1cc(OC)cc(N(CCO)c2ccc3ncc(-c4ccnc(C(=O)NCCCN)c4)nc3c2)c1 [Compound 123] | 5.22 | 18.6 | 5.2 | > 10000 | 103 | 5.57 |
| COCCCN(c1cc(OC)cc(OC)c1)c1ccc2ncc(-c3ccn(C)c3)nc2c1 [Compound 3] | 5.91 | 7.76 | 6.4 | > 10000 | – | 6.62 |
| COc1cc(OC)cc(N(CC2CC2)c2ccc3ncc(-c4ocnc4C)nc3c2)c1 [Compound 104] | <5 | 389 | <5 | > 10000 | 141 | <5 |
| COc1cc(OC)cc(N(CCCO)c2ccc3ncc(-c4ccc(N5CCOCC5)nc4)nc3c2)c1 [Compound 124] | 6.24 | 6.92 | 6.1 | > 10000 | – | ~6.64 |
| COc1cc(OC)cc(N(CCO)c2ccc3ncc(-c4ccncc4)nc3c2)c1 [Compound 11] | 6.01 | 8.13 | 5.9 | > 10000 | 158 | 6.65 |
